Patent US20040106804A1 (RICHTER GEDEON VEGYESZETI GYAR RT., priority 2001, published 2004)

Conditions: speed depends on the conditions of the dehydration

temperature at which the monohydrate is transformed into anhydrous fluconazole ("anhydrate"): 40-90 °C
Structure (SMILES): OC(Cn1cncn1)(Cn1cncn1)c1ccc(F)cc1F [monohydrate, 2-(2,4-Difluorophenyl)-1,3-bis(1,2,4-triazole-1-yl)-propane-2-ol Monohydrate]
